Measurements published in ChEMBL document CHEMBL4000244, “Probing A-form DNA: A fluorescent aminosugar probe and dual recognition by anthraquinone-neomycin conjugates” (Bioorg Med Chem, 2017).

Tests used:
[1] = Binding affinity to 5'-GCCCCCCC-3' DNA hairpin assessed as change in fluorescence intensity at 1 uM after 45 mins by fluorescence quenching analysis relative to control
[2] = Binding affinity to 5'-CCCCCCCC-3' DNA hairpin assessed as change in fluorescence intensity at 1 uM after 45 mins by fluorescence quenching analysis relative to control
[3] = Binding affinity to 5'-GGCCCCGC-3' DNA hairpin assessed as change in fluorescence intensity at 1 uM after 45 mins by fluorescence quenching analysis relative to control
[4] = Binding affinity to 5'-GGGCCCGC-3' DNA hairpin assessed as change in fluorescence intensity at 1 uM after 45 mins by fluorescence quenching analysis relative to control
[5] = Binding affinity to 5'-CGCCCCCG-3' DNA hairpin assessed as change in fluorescence intensity at 1 uM after 45 mins by fluorescence quenching analysis relative to control
[6] = Binding affinity to 5'-GGCCCGCG-3' DNA hairpin assessed as change in fluorescence intensity at 1 uM after 45 mins by fluorescence quenching analysis relative to control
[7] = Binding affinity to 5'-GGGGGCCC-3' DNA hairpin assessed as change in fluorescence intensity at 1 uM after 45 mins by fluorescence quenching analysis relative to control
[8] = Binding affinity to 5'-GGCCCGGC-3' DNA hairpin assessed as change in fluorescence intensity at 1 uM after 45 mins by fluorescence quenching analysis relative to control
[9] = Binding affinity to 5'-GGGCCGGG-3' DNA hairpin assessed as change in fluorescence intensity at 1 uM after 45 mins by fluorescence quenching analysis relative to control
[10] = Binding affinity to 5'-CCCGGCCC-3' DNA hairpin assessed as change in fluorescence intensity at 1 uM after 45 mins by fluorescence quenching analysis relative to control
[11] = Binding affinity to 5'-GCCCGGGC-3' DNA hairpin assessed as change in fluorescence intensity at 1 uM after 45 mins by fluorescence quenching analysis relative to control
[12] = Binding affinity to 5'-CGCGGCCG-3' DNA hairpin assessed as change in fluorescence intensity at 1 uM after 45 mins by fluorescence quenching analysis relative to control
[13] = Binding affinity to 5'-CGCCCGCC-3' DNA hairpin assessed as change in fluorescence intensity at 1 uM after 45 mins by fluorescence quenching analysis relative to control
[14] = Binding affinity to 5'-CCGGGCGC-3' DNA hairpin assessed as change in fluorescence intensity at 1 uM after 45 mins by fluorescence quenching analysis relative to control
[15] = Binding affinity to 5'-CCGCCGGG-3' DNA hairpin assessed as change in fluorescence intensity at 1 uM after 45 mins by fluorescence quenching analysis relative to control
[16] = Binding affinity to 5'-GGGGCGGC-3' DNA hairpin assessed as change in fluorescence intensity at 1 uM after 45 mins by fluorescence quenching analysis relative to control
[17] = Binding affinity to 5'-CCGGGGGG-3' DNA hairpin assessed as change in fluorescence intensity at 1 uM after 45 mins by fluorescence quenching analysis relative to control
[18] = Binding affinity to 5'-GCGGGGCG-3' DNA hairpin assessed as change in fluorescence intensity at 1 uM after 45 mins by fluorescence quenching analysis relative to control
[19] = Binding affinity to 5'-CGGCGCGC-3' DNA hairpin assessed as change in fluorescence intensity at 1 uM after 45 mins by fluorescence quenching analysis relative to control
[20] = Binding affinity to 5'-CGGCGGCG-3' DNA hairpin assessed as change in fluorescence intensity at 1 uM after 45 mins by fluorescence quenching analysis relative to control
[21] = Binding affinity to 5'-CGCCCGGG-3' DNA hairpin assessed as change in fluorescence intensity at 1 uM after 45 mins by fluorescence quenching analysis relative to control
[22] = Binding affinity to 5'-CGCCGGGG-3' DNA hairpin assessed as change in fluorescence intensity at 1 uM after 45 mins by fluorescence quenching analysis relative to control
[23] = Binding affinity to 5'-GCGGCGGC-3' DNA hairpin assessed as change in fluorescence intensity at 1 uM after 45 mins by fluorescence quenching analysis relative to control
[24] = Binding affinity to 5'-GCCCGCCC-3' DNA hairpin assessed as change in fluorescence intensity at 1 uM after 45 mins by fluorescence quenching analysis relative to control
[25] = Binding affinity to 5'-CGCGGGGC-3' DNA hairpin assessed as change in fluorescence intensity at 1 uM after 45 mins by fluorescence quenching analysis relative to control
[26] = Binding affinity to 5'-CGCGCGGG-3' DNA hairpin assessed as change in fluorescence intensity at 1 uM after 45 mins by fluorescence quenching analysis relative to control
[27] = Binding affinity to 5'-CCCCGGCG-3' DNA hairpin assessed as change in fluorescence intensity at 1 uM after 45 mins by fluorescence quenching analysis relative to control
[28] = Binding affinity to 5'-GCGCCCGC-3' DNA hairpin assessed as change in fluorescence intensity at 1 uM after 45 mins by fluorescence quenching analysis relative to control
[29] = Binding affinity to 5'-CGCGCCGC-3' DNA hairpin assessed as change in fluorescence intensity at 1 uM after 45 mins by fluorescence quenching analysis relative to control
[30] = Binding affinity to 5'-GCCGGCGC-3' DNA hairpin assessed as change in fluorescence intensity at 1 uM after 45 mins by fluorescence quenching analysis relative to control
[31] = Binding affinity to 5'-CGCGGCGG-3' DNA hairpin assessed as change in fluorescence intensity at 1 uM after 45 mins by fluorescence quenching analysis relative to control
[32] = Binding affinity to 5'-CGGGCCGC-3' DNA hairpin assessed as change in fluorescence intensity at 1 uM after 45 mins by fluorescence quenching analysis relative to control
[33] = Binding affinity to 5'-CCCCGCGG-3' DNA hairpin assessed as change in fluorescence intensity at 1 uM after 45 mins by fluorescence quenching analysis relative to control
[34] = Binding affinity to 5'-GCCGGCGG-3' DNA hairpin assessed as change in fluorescence intensity at 1 uM after 45 mins by fluorescence quenching analysis relative to control
[35] = Binding affinity to 5'-CCGCCCGG-3' DNA hairpin assessed as change in fluorescence intensity at 1 uM after 45 mins by fluorescence quenching analysis relative to control
[36] = Binding affinity to 5'-GCCGCGCG-3' DNA hairpin assessed as change in fluorescence intensity at 1 uM after 45 mins by fluorescence quenching analysis relative to control

An Activity [1] of 10.1%, an Activity [2] of 15% and an Activity [3] of 21.3% were found for `NCC1O[C@H](O[C@H]2[C@@H](O)[C@H](O[C@@H]3[C@@H](O)[C@H](N)C[C@H](N)[C@H]3O[C@H]3O[C@H](CN)[C@@H](O)[C@H](O)[C@H]3N)O[C@@H]2CSCCNC(=O)CCSCC(=O)Nc2ccc(-c3c4ccc(=O)cc-4oc4cc(O)ccc34)c(C(=O)O)c2)[C@H](N)[C@@H](O)[C@@H]1O` (stereo partly specified) in this work. It also gave an Activity [4] of 30.6%, an Activity [5] of 31.8% and an Activity [6] of 34.3%. The Activity [7] was 34.4%, the Activity [8] was 37% and the Activity [9] was 37.5%. For the same compound, the Activity [10] was 40.8%, the Activity [11] was 41.1% and the Activity [12] was 42%. For the same compound, the Activity [13] was 42%, the Activity [14] was 43.6% and the Activity [15] was 43.7%. For the same compound, the Activity [16] was 44.6%, the Activity [17] was 45.1% and the Activity [18] was 45.2%. The Activity [19] was 46.2%, the Activity [20] was 46.5% and the Activity [21] was 47.2%. The Activity [22] was 47.3%, the Activity [23] was 47.7% and the Activity [24] was 47.8%. The Activity [25] was 48.3%, the Activity [26] was 49.9% and the Activity [27] was 50%. It also gave an Activity [28] of 50.3%, an Activity [29] of 50.9% and an Activity [30] of 51.9%. The Activity [31] was 52%, the Activity [32] was 52.5% and the Activity [33] was 53.3%. The Activity [34] was 53.8%, the Activity [35] was 56.8% and the Activity [36] was 58.2%.
